Read-outs that look alike come from different tables or passages of the source.
Test system: NL-RLuc virus
Experiment: Inhibition of HIV replication (NL-RLuc reporter virus in MT-2 cells, luciferase readout)
Assay type: cell-based
How it was run: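 MT-2 cells infected with NL4-3-derived NL-RLuc reporter virus (Renilla luciferase replacing part of nef) with serial compound dilutions, RPMI 1640 + 10% FBS; 5 days. Growth by luciferase; EC50 from median effect equation, ≥2 experiments.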

[1] = Human immunodeficiency virus 1, MT2, 120 h, read-out: Activity
[2] = Human immunodeficiency virus 1, MT2, 120 h, read-out: EC50 μM

Row | SMILES | EC50 [1] | EC50 [2] | EC50 (NL-RLuc virus in MT-2 cells, 5 days of incubation, luciferase, at least 2 experiments, read-out: Activity)
1 | Cc1nc(C)c([C@H](OC(C)(C)C)C(=O)O)c(N2CCC(C)(C)CC2)c1-c1ccc2c(c1)CCN(Cc1cc(Cl)ccc1F)C2 [Compound 42, (S)-2-(tert-butoxy)-2-(5-(2-(5-chloro-2-fluorobenzyl)-1,2,3,4-tetrahydroisoquinolin-6-yl)-4-(4,4-dimethylpiperidin-1-yl)-2,6-dimethylpyridin-3-yl)acetic acid] | < 0.1 µM | – | –
2 | Cc1nc(C)c([C@H](OC(C)(C)C)C(=O)O)c(N2CCC(C)(C)CC2)c1-c1ccc2c(c1)CCN(Cc1cc(F)cc(Cl)c1)C2 [Compound 43, (S)-2-(tert-butoxy)-2-(5-(2-(3-chloro-5-fluorobenzyl)-1,2,3,4-tetrahydroisoquinolin-6-yl)-4-(4,4-dimethylpiperidin-1-yl)-2,6-dimethylpyridin-3-yl)acetic acid] | < 0.1 µM | – | –
3 | Cc1nc(C)c([C@H](OC(C)(C)C)C(=O)O)c(N2CCC(C)(C)CC2)c1-c1ccc2c(c1)CCN(Cc1c(F)ccc(F)c1F)C2 [Compound 44, (S)-2-(tert-butoxy)-2-(4-(4,4-dimethylpiperidin-1-yl)-2,6-dimethyl-5-(2-(2,3,6-trifluorobenzyl)-1,2,3,4-tetrahydroisoquinolin-6-yl)pyridin-3-yl)acetic acid] | < 0.1 µM | – | –
4 | Cc1nc(C)c([C@H](OC(C)(C)C)C(=O)O)c(N2CCC(C)(C)CC2)c1-c1ccc2c(c1)CCN(Cc1cc(F)ccc1Cl)C2 [Compound 45, (S)-2-(tert-butoxy)-2-(5-(2-(2-chloro-5-fluorobenzyl)-1,2,3,4-tetrahydroisoquinolin-6-yl)-4-(4,4-dimethylpiperidin-1-yl)-2,6-dimethylpyridin-3-yl)acetic acid] | < 0.1 µM | 0.003 µM | –
5 | Cc1cc(F)cc(CN2CCc3cc(-c4c(C)nc(C)c([C@H](OC(C)(C)C)C(=O)O)c4N4CCC(C)(C)CC4)ccc3C2)c1 [Compound 46, (S)-2-(tert-butoxy)-2-(4-(4,4-dimethylpiperidin-1-yl)-5-(2-(3-fluoro-5-methylbenzyl)-1,2,3,4-tetrahydroisoquinolin-6-yl)-2,6-dimethylpyridin-3-yl)acetic acid] | < 0.1 µM | – | –
6 | Cc1ccc(F)cc1CN1CCc2cc(-c3c(C)nc(C)c([C@H](OC(C)(C)C)C(=O)O)c3N3CCC(C)(C)CC3)ccc2C1 [Compound 47, (S)-2-(tert-butoxy)-2-(4-(4,4-dimethylpiperidin-1-yl)-5-(2-(5-fluoro-2-methylbenzyl)-1,2,3,4-tetrahydroisoquinolin-6-yl)-2,6-dimethylpyridin-3-yl)acetic acid] | < 0.1 µM | – | –
7 | Cc1ccc(F)c(CN2CCc3cc(-c4c(C)nc(C)c([C@H](OC(C)(C)C)C(=O)O)c4N4CCC(C)(C)CC4)ccc3C2)c1F [Compound 48, (S)-2-(tert-butoxy)-2-(5-(2-(2,6-difluoro-3-methylbenzyl)-1,2,3,4-tetrahydroisoquinolin-6-yl)-4-(4,4-dimethylpiperidin-1-yl)-2,6-dimethylpyridin-3-yl)acetic acid] | < 0.1 µM | – | –
8 | Cc1nc(C)c([C@H](OC(C)(C)C)C(=O)O)c(N2CCC(C)(C)CC2)c1-c1ccc2c(c1)CCN(Cc1cc(F)c(F)cc1F)C2 [Compound 49, (S)-2-(tert-butoxy)-2-(4-(4,4-dimethylpiperidin-1-yl)-2,6-dimethyl-5-(2-(2,4,5-trifluorobenzyl)-1,2,3,4-tetrahydroisoquinolin-6-yl)pyridin-3-yl)acetic acid] | < 0.1 µM | – | –
9 | Cc1nc(C)c([C@H](OC(C)(C)C)C(=O)O)c(N2CCC(C)(C)CC2)c1-c1ccc2c(c1)CCN(Cc1c(F)cccc1F)C2 [Compound 50, (S)-2-(tert-butoxy)-2-(5-(2-(2,6-difluorobenzyl)-1,2,3,4-tetrahydroisoquinolin-6-yl)-4-(4,4-dimethylpiperidin-1-yl)-2,6-dimethylpyridin-3-yl)acetic acid] | < 0.1 µM | – | –
10 | Cc1cccc(F)c1CN1CCc2cc(-c3c(C)nc(C)c([C@H](OC(C)(C)C)C(=O)O)c3N3CCC(C)(C)CC3)ccc2C1 [Compound 51, (S)-2-(tert-butoxy)-2-(4-(4,4-dimethylpiperidin-1-yl)-5-(2-(2-fluoro-6-methylbenzyl)-1,2,3,4-tetrahydroisoquinolin-6-yl)-2,6-dimethylpyridin-3-yl)acetic acid] | < 0.1 µM | 0.003 µM | –
11 | Cc1ccc(C(F)(F)F)cc1CN1CCc2cc(-c3c(C)nc(C)c([C@H](OC(C)(C)C)C(=O)O)c3N3CCC(C)(C)CC3)ccc2C1 [Compound 52, (S)-2-(tert-butoxy)-2-(4-(4,4-dimethylpiperidin-1-yl)-2,6-dimethyl-5-(2-(2-methyl-5-(trifluoromethyl)benzyl)-1,2,3,4-tetrahydroisoquinolin-6-yl)pyridin-3-yl)acetic acid] | – | – | < 0.1 µM
12 | Cc1nc(C)c([C@H](OC(C)(C)C)C(=O)O)c(N2CCC(C)(C)CC2)c1-c1ccc2c(c1)CCN(Cc1ccc(Cl)cc1Cl)C2 [Compound 53, (S)-2-(tert-butoxy)-2-(5-(2-(2,4-dichlorobenzyl)-1,2,3,4-tetrahydroisoquinolin-6-yl)-4-(4,4-dimethylpiperidin-1-yl)-2,6-dimethylpyridin-3-yl)acetic acid] | < 0.1 µM | – | –
13 | Cc1cccc(CN2CCc3cc(-c4c(C)nc(C)c([C@H](OC(C)(C)C)C(=O)O)c4N4CCC(C)(C)CC4)ccc3C2)c1F [Compound 54, (S)-2-(tert-butoxy)-2-(4-(4,4-dimethylpiperidin-1-yl)-5-(2-(2-fluoro-3-methylbenzyl)-1,2,3,4-tetrahydroisoquinolin-6-yl)-2,6-dimethylpyridin-3-yl)acetic acid] | < 0.1 µM | – | –
14 | Cc1nc(C)c([C@H](OC(C)(C)C)C(=O)O)c(N2CCC(C)(C)CC2)c1-c1ccc2c(c1)CCN(Cc1ccccc1Cl)C2 [Compound 55, (S)-2-(tert-butoxy)-2-(5-(2-(2-chlorobenzyl)-1,2,3,4-tetrahydroisoquinolin-6-yl)-4-(4,4-dimethylpiperidin-1-yl)-2,6-dimethylpyridin-3-yl)acetic acid] | < 0.1 µM | – | –
15 | Cc1nc(C)c([C@H](OC(C)(C)C)C(=O)O)c(N2CCC(C)(C)CC2)c1-c1ccc2c(c1)CCN(Cc1ccc(Cl)cc1)C2 [Compound 56, (S)-2-(tert-butoxy)-2-(5-(2-(4-chlorobenzyl)-1,2,3,4-tetrahydroisoquinolin-6-yl)-4-(4,4-dimethylpiperidin-1-yl)-2,6-dimethylpyridin-3-yl)acetic acid] | < 0.1 µM | – | –
16 | Cc1cc(C)c(CN2CCc3cc(-c4c(C)nc(C)c([C@H](OC(C)(C)C)C(=O)O)c4N4CCC(C)(C)CC4)ccc3C2)c(C)c1 [Compound 57, (S)-2-(tert-butoxy)-2-(4-(4,4-dimethylpiperidin-1-yl)-2,6-dimethyl-5-(2-(2,4,6-trimethylbenzyl)-1,2,3,4-tetrahydroisoquinolin-6-yl)pyridin-3-yl)acetic acid] | < 0.1 µM | – | –
17 | Cc1nc(C)c([C@H](OC(C)(C)C)C(=O)O)c(N2CCC(C)(C)CC2)c1-c1ccc2c(c1)CCN(Cc1c(F)cc(F)cc1F)C2 [Compound 58, (S)-2-(tert-butoxy)-2-(4-(4,4-dimethylpiperidin-1-yl)-2,6-dimethyl-5-(2-(2,4,6-trifluorobenzyl)-1,2,3,4-tetrahydroisoquinolin-6-yl)pyridin-3-yl)acetic acid] | < 0.1 µM | – | –
18 | Cc1nc(C)c([C@H](OC(C)(C)C)C(=O)O)c(N2CCC(C)(C)CC2)c1-c1ccc2c(c1)CCN(Cc1ccc(C(C)C)cc1)C2 [Compound 59, (S)-2-(tert-butoxy)-2-(4-(4,4-dimethylpiperidin-1-yl)-5-(2-(4-isopropylbenzyl)-1,2,3,4-tetrahydroisoquinolin-6-yl)-2,6-dimethylpyridin-3-yl)acetic acid] | < 0.1 µM | 0.058 µM | –
19 | CCc1ccc(CN2CCc3cc(-c4c(C)nc(C)c([C@H](OC(C)(C)C)C(=O)O)c4N4CCC(C)(C)CC4)ccc3C2)cc1 [Compound 60, (S)-2-(tert-butoxy)-2-(4-(4,4-dimethylpiperidin-1-yl)-5-(2-(4-ethylbenzyl)-1,2,3,4-tetrahydroisoquinolin-6-yl)-2,6-dimethylpyridin-3-yl)acetic acid] | < 0.1 µM | – | –
20 | Cc1nc(C)c([C@H](OC(C)(C)C)C(=O)O)c(N2CCC(C)(C)CC2)c1-c1ccc2c(c1)CCN(Cc1cccc(C#N)c1)C2 [Compound 61, (S)-2-(tert-butoxy)-2-(5-(2-(3-cyanobenzyl)-1,2,3,4-tetrahydroisoquinolin-6-yl)-4-(4,4-dimethylpiperidin-1-yl)-2,6-dimethylpyridin-3-yl)acetic acid] | < 0.1 µM | – | –
21 | Cc1nc(C)c([C@H](OC(C)(C)C)C(=O)O)c(N2CCC(C)(C)CC2)c1-c1ccc2c(c1)CCN(Cc1ccccc1C#N)C2 [Compound 62, (S)-2-(tert-butoxy)-2-(5-(2-(2-cyanobenzyl)-1,2,3,4-tetrahydroisoquinolin-6-yl)-4-(4,4-dimethylpiperidin-1-yl)-2,6-dimethylpyridin-3-yl)acetic acid] | < 0.1 µM | – | –
22 | Cc1nc(C)c([C@H](OC(C)(C)C)C(=O)O)c(N2CCC(C)(C)CC2)c1-c1ccc2c(c1)CCN(Cc1cc(C#N)ccc1F)C2 [Compound 63, (S)-2-(tert-butoxy)-2-(5-(2-(5-cyano-2-fluorobenzyl)-1,2,3,4-tetrahydroisoquinolin-6-yl)-4-(4,4-dimethylpiperidin-1-yl)-2,6-dimethylpyridin-3-yl)acetic acid] | < 0.1 µM | – | –
23 | Cc1nc(C)c([C@H](OC(C)(C)C)C(=O)O)c(N2CCC(C)(C)CC2)c1-c1ccc2c(c1)CCN(Cc1ccc(C#N)cc1)C2 [Compound 64, (S)-2-(tert-butoxy)-2-(5-(2-(4-cyanobenzyl)-1,2,3,4-tetrahydroisoquinolin-6-yl)-4-(4,4-dimethylpiperidin-1-yl)-2,6-dimethylpyridin-3-yl)acetic acid] | < 0.1 µM | – | –
24 | Cc1cc(C#N)ccc1CN1CCc2cc(-c3c(C)nc(C)c([C@H](OC(C)(C)C)C(=O)O)c3N3CCC(C)(C)CC3)ccc2C1 [Compound 65, (S)-2-(tert-butoxy)-2-(5-(2-(4-cyano-2-methylbenzyl)-1,2,3,4-tetrahydroisoquinolin-6-yl)-4-(4,4-dimethylpiperidin-1-yl)-2,6-dimethylpyridin-3-yl)acetic acid] | < 0.1 µM | – | –

Source: patent publication US10189816B2, “Substituted pyridines as inhibitors of human immunodeficiency virus replication” (priority 2015, dated 2019)
